*1 amine or outer side, *2 acyl side, *3 side chain or, on linkers, in order; H or OH if unused. Where a SMILES comes first, the peptide text is derived from it. [ ]: non-standard residue; d: D form. The star is where a group is joined. Dhc(Pam)2 = S-[2,3-bis(hexadecanoyloxy)-(2S)-propyl]-(R)-cysteine, CCCCCCCCCCCCCCCC(=O)OC[C@@H](CSC[C@H](N[*:1])C(=O)[*:2])OC(=O)CCCCCCCCCCCCCCC; Propyl(2R-PamO,3-PamO) = CCCCCCCCCCCCCCCC(=O)OC[C@H](C*)OC(=O)CCCCCCCCCCCCCCC; Palmitoyl = CCCCCCCCCCCCCCCC(=O)*; Myristoyl = CCCCCCCCCCCCCC(=O)*
Key:
spleen cells of mice [1] = experiment: number of spleen cells in cyclophosphamide-treated mice (Experimental Example 2); type: in vivo, BALB/c mouse; conditions: cyclophosphamide singly, 250 mg/kg i.p.; saline/2% gum arabic mice = 100%
Protocol: (§1) A BALB/c mouse was injected intraperitoneally with cyclophosphamide dissolved in physiological saline solution at a dose of 250 mg/kg. From the next day, the animal was administered intraperitoneally for 3 consecutive days with TAN-1511 complex suspended in physiological saline solution containing 2% gum arabic at a dose of 2 mg/kg/day. On the day following completion of the administration, number of trypan blue chromophobic cells of spleen and peritoneal cavity was counted.

[2] = test system: peritoneal cavity cells of mice; experiment: number of peritoneal cavity cells in cyclophosphamide-treated mice (Experimental Example 2); type: in vivo, BALB/c mouse; conditions: cyclophosphamide singly, 250 mg/kg i.p.; saline/2% gum arabic mice = 100%
Protocol: as §1

spleen cells of mice [3] = experiment: number of spleen cells in cyclophosphamide-treated mice (Experimental Example 4); type: in vivo, BALB/c mouse; conditions: cyclophosphamide singly, 200 mg/kg i.p.; saline/2% gum arabic mouse = 100%
Protocol: as §1, with “200” for “250”, “day after next,” for “next day,”, “4” for “3”, “the test compound” for “TAN-1511 complex”, “arabic.” for “arabic at a dose of 2 mg/kg/day.”, “spleen” for “spleen and peritoneal cavity”

[4] = test system: leukocytes of peripheral blood; experiment: enhancing the number of leukocytes in cyclophosphamide-treated mice; type: in vivo, CDF1/Crj mice; conditions: cyclophosphamide 150 mg/kg orally, then 5% glucose s.c. for 5 days; mice without cyclophosphamide = 100%
Protocol: Six week old female CDF1/Crj mice (5animals/group) were subjected to the experiment. […] From the next day, each animal was administered subcutaneously with the compound suspended in 5% glucose at the following dosages for five days once a day. On the next day after completion of the administration, about 100 μl of peripheral blood was collected from orbital vein using an EDTA-treated glass capillary. Then, the number of leukocytes was counted using a automatic cell analyzer (Sysmex K-2000, Toa Medical Electronics, Japan)

mice = experiment: acute toxicity test to mice; type: in vivo, mouse; conditions: intraperitoneal administration, dose of 400 mg/kg
Protocol: No mouse administered intraperitoneally with Pam-Dhc(Pam)2 -Gly-Gly-Gly-Glu-Thr-Thr-OH (Compound 1) (SEQ ID No. 89) at a dose of 400 mg/kg was found dead.

Compound | Number of spleen cells (%) (spleen cells of mice [1]) | Number of peritoneal cavity cells (%) [2] [%] | Number of abdominal cavity cells (%) (spleen cells of mice [3]) | average value and standard deviation of leukocyte numbers [4] [%] | mice found dead / killed (mice)
O=P1(N(CCCl)CCCl)NCCCO1 (stereo not drawn) [Cyclophosphamide] | 11.8 | 27.7 | 33.4 | 41±11 | 
CCCCCCCCCCCCCCCC(=O)OC[C@H](CSC[C@H](NC(=O)CCCCCCCCCCCCC)C(=O)NCC(=O)NCC(=O)NCC(=O)N[C@@H](CCC(=O)O)C(=O)N[C@H](C(=O)N[C@H](C(=O)O)[C@@H](C)O)[C@@H](C)O)OC(=O)CCCCCCCCCCCCCCC [Compound 9, (2R,6R)-2-Myr-amino-6,7-bis(PamO)-4-THT-Gly-Gly-Gly-Glu-Thr-Thr-OH] (Myristoyl-C(Propyl(2R-PamO,3-PamO))GGGETT-OH) |  |  |  |  | No mouse was killed
Pam-Dhc(Pam)2 -Gly-Gly-Gly-Glu-Thr-Thr-OH (Palmitoyl-[Dhc(Pam)2]GGGETT-OH; SMILES CCCCCCCCCCCCCCCC(=O)N[C@@H](CSC[C@H](COC(=O)CCCCCCCCCCCCCCC)OC(=O)CCCCCCCCCCCCCCC)C(=O)NCC(=O)NCC(=O)NCC(=O)N[C@@H](CCC(=O)O)C(=O)N[C@H](C(=O)N[C@H](C(=O)O)[C@@H](C)O)[C@@H](C)O) [Compound 1] |  |  |  |  | No mouse
